These results are taken from patent US4008329A, “Substituted cyclohexanes, pharmaceutical compositions containing them and method of treatment involving their use” (priority 1974, dated 1977).

Where two headings read alike, the source gives them in different places. Bounds are passed on as bounds.

By LD50 is commonly meant the dose expected to kill half of the subjects tested. A low value points to greater toxicity. As usually defined, the inhibition is the drop in the measured response relative to a control, in per cent.

The test system of series [1] is hypotension (H), tachycardia (T), and positive inotropism (I^+) induced by isoprenaline. The experiment in a line: Cardiovascular parameters: modification of isoprenaline-induced hypotension, tachycardia and positive inotropism. It is filed as in vivo, chloralised dogs. The settings on record: Canis lupus familiaris. The procedure: Experiments were carried out on chloralised dogs: these consisted of measuring, as a percentage relative to the […] of reference animals, the modifications caused by the products of the invention, administered in a proportion of 5mg/kg by intravenous route, on hypotension (H), tachycardia (T), and positive inotropism (I^+) induced by isoprenaline previously administered in a proportion of 0.5μg/kg by intravenous route.

For the next series, the system named is mice. As to the kind of experiment: Supramaximal electrical shock test (corneal electrodes). Format: in vivo. Particulars: Mus musculus, po, P.O., dose which protects 50% of the animals from tonic tension, read-out: ED 50 ELECTROSHOCK
A short description of series [2]: LD50 oral, acute toxicity. Particulars: mouse, in vivo; oral administration; mice.
The test system of series [3] is depletion of serotonin (5HT) induced by H75/12. The experiment in a line: Test using H75/12: inhibition of serotonin depletion. Format: in vivo. The settings on record: Mus musculus, ip, 30 min before H75/12, mice, read-out: Percentage of inhibition of depletion on 5 HT; for inhibition at 40 mg/kg: 40 mg/kg I.P.; for inhibition at 10 mg/kg: 10 mg/kg I.P.; for inhibition at 30 mg/kg: 30 mg/kg I.P.; for inhibition at 20 mg/kg: 20 mg/kg I.P. The procedure:
In the experiments carried out, the H 75/12 was administered on two occasions with an interval of two hours between them, in a proportion of 100mg/kg by intraperitoneal method.
In Table I hereafter, the first figure represents the first dose in mg/kg by intraperitoneal method, of the product according to the invention, administered thirty minutes before the injection of H75/12, and the second figure represents the percentage of inhibition of the depletion of serotonin in relation to a reference batch which has received only H75/12. The compounds signified by Compound Nos. 1-14 in Table 1 are indicated hereafter in Table II.

Where [4] appears, read: 5 mg/kg intravenous, isoprenaline 0.5 μg/kg intravenous, chloralised dogs, read-out: Cardiovascular parameters, H (hypotension).
The mark [5] stands for this setting: 5 mg/kg intravenous, isoprenaline 0.5 μg/kg intravenous, chloralised dogs, read-out: Cardiovascular parameters, I^+ (positive inotropism).
The mark [6] stands for this setting: 5 mg/kg intravenous, isoprenaline 0.5 μg/kg intravenous, chloralised dogs, read-out: Cardiovascular parameters, T (tachycardia).

With `CC(C)NC1CCCC(Oc2cccc(Cl)c2)C1O` (stereo not shown) [Compound No. 1, 2-hydroxy-3-(3'-chloro-phenoxy)-N-isopropyl-cyclohexylamine], the change in vivo at 5 mg/kg in series [1] (setting [4]), in series [1] (setting [5]) and in series [1] (setting [6]) was 0% throughout. In the series on mice, the ED50 worked out at 100 mg/kg. The median lethal dose (LD50) in series [2] is 588 mg/kg. In series [3], the inhibition at 40 mg/kg was 99%.

As to `CC(C)NCC(O)COc1cccc2ccccc12` (stereo not shown) [PROPRANOLOL, propranolol, reference compound], the change in vivo at 5 mg/kg in series [1] (iv, read-out: Cardiovascular parameters, H (hypotension)) was -100%; in series [1] (iv, read-out: Cardiovascular parameters, I^+ (positive inotropism)) it was -98%; in series [1] (iv, read-out: Cardiovascular parameters, T (tachycardia)), -92%.

Take `CC(C)NC1CCCC(Oc2ccc(Cl)cc2)C1O` (stereo not shown) [compound 2]: the change in vivo at 5 mg/kg in series [1] (setting [4]) was 30%; in series [1] (setting [5]), -15%; in series [1] (setting [6]), -20%. Further, in the series with mice, the ED50 was determined as 300 mg/kg. Further, the inhibition at 40 mg/kg in series [3] came to 42%.

With `CC(C)CNC1CCCC(Oc2ccc(Cl)cc2)C1O` (stereo not shown) [compound 3], the change in vivo at 5 mg/kg in series [1] (setting [4]), in series [1] (setting [5]) and in series [1] (setting [6]) was 0% each time. In the series with mice, the ED50 was 100 mg/kg. Besides, the inhibition at 10 mg/kg in series [3] is 30%.

Turning to `CC(C)CCNC1CCCC(Oc2ccc(Cl)cc2)C1O` (stereo not shown) [compound 4], the change in vivo at 5 mg/kg in series [1] (setting [4]), in series [1] (setting [5]) and in series [1] (setting [6]) was 0% each time. In addition, in the series on mice, the ED50 was 25 mg/kg. Also, the inhibition at 10 mg/kg in series [3] was determined as 59%.

`CC(C)NC1CCCC(Oc2ccccc2)C1O` (stereo not shown) [compound 5]: the change in vivo at 5 mg/kg is 0% in series [1] (setting [4]), 25% in series [1] (setting [5]) and -39% in series [1] (setting [6]). The inhibition at 40 mg/kg in series [3] was determined as 26%.

As to `CC(C)NC1CCCC(Oc2cccc(C(F)(F)F)c2)C1O` (stereo not shown) [compound 6], the figures for the change in vivo at 5 mg/kg in series [1] (setting [4]), in series [1] (setting [5]) and in series [1] (setting [6]) were -18%, 0% and -20%, respectively. For the same molecule, the ED50 with mice was < 100 mg/kg. Also, in series [3], the inhibition at 40 mg/kg came out at 74%.

As to `CC(C)CCNC1CCCC(Oc2cccc(C(F)(F)F)c2)C1O` (stereo not shown) [compound 7], the change in vivo at 5 mg/kg was -50% in series [1] (setting [4]), -38% in series [1] (setting [5]) and -50% in series [1] (setting [6]). Also, the ED50 in the series with mice turned out to be 30 mg/kg. Moreover, the inhibition at 30 mg/kg in series [3] is 93%.

`CC(C)NC1CCCC(Oc2ccc(F)cc2)C1O` (stereo not shown) [compound 8]: the figures for the change in vivo at 5 mg/kg in series [1] (setting [4]), in series [1] (setting [5]) and in series [1] (setting [6]) were 0%, -27% and -10%, respectively. Besides, in the series on mice, the ED50 was found to be 200 mg/kg. Besides, the inhibition at 40 mg/kg in series [3] is 59%.

As to `CN(C)C1CCCC(Oc2ccc(F)cc2)C1O` (stereo not shown) [compound 9], the change in vivo at 5 mg/kg in series [1] (setting [4]) worked out at 30%; in series [1] (setting [5]), 25%; in series [1] (setting [6]), 9%. Also, the ED50 in the series on mice worked out at 250 mg/kg. The inhibition at 20 mg/kg in series [3] turned out to be 18%.

With `CCCCNC1CCCC(Oc2cccc(Cl)c2)C1O` (stereo not shown) [compound 10], the change in vivo at 5 mg/kg in series [1] (setting [4]), in series [1] (setting [5]) and in series [1] (setting [6]) was 0% throughout. In addition, in the series with mice, the ED50 was 80 mg/kg. In addition, the inhibition at 30 mg/kg in series [3] came out at 92%.

For the molecule `CC(Cc1ccccc1)NC1CCCC(Oc2ccccc2)C1O` (stereo not shown) [compound 11], the results for the change in vivo at 5 mg/kg in series [1] (setting [4]), in series [1] (setting [5]) and in series [1] (setting [6]) were 0%, -10% and -60%, respectively. Moreover, the inhibition at 40 mg/kg in series [3] was determined as 118%.

`CC(Cc1ccccc1)NC1CCCC(Oc2ccc(F)cc2)C1O` (stereo not shown) [compound 12]: the change in vivo at 5 mg/kg is 35% in series [1] (setting [4]), 0% in series [1] (setting [5]) and -35% in series [1] (setting [6]). In the series on mice, the ED50 was < 50 mg/kg. For the same molecule, the inhibition at 20 mg/kg in series [3] came to 120%.

Consider `NC1CCCC(Oc2ccc(Cl)cc2)C1O` (stereo not shown) [compound 13], for which the change in vivo at 5 mg/kg in series [1] (setting [4]), in series [1] (setting [5]) and in series [1] (setting [6]) was 0% in each case. The inhibition at 40 mg/kg in series [3] is 62%.

In the case of `CN(C)C1CCCC(Oc2ccc(Cl)cc2)C1O` (stereo not shown) [compound 14], the change in vivo at 5 mg/kg in series [1] (setting [4]), in series [1] (setting [5]) and in series [1] (setting [6]) was 0% each time. Also, the inhibition at 40 mg/kg in series [3] amounted to 38%.
